Reference: ChEMBL document CHEMBL1151807, “Myxotyrosides A and B, Unusual rhamnosides from Myxococcus sp” (J Nat Prod, 2009)
Activity calls are given as the source filed them. No cut-off for these calls is given here.

Key:
Assay type in all cases: functional, organism-based
Priestia megaterium = assay: Antimicrobial activity against Bacillus megaterium at 50 ug/disk by disk diffusion assay
Escherichia coli [1] = assay: Antimicrobial activity against Escherichia coli at 50 ug/disk by disk diffusion assay
Aspergillus ruber = assay: Antimicrobial activity against Eurotium rubrum at 50 ug/disk by disk diffusion assay
Microbotryum violaceum = assay: Antimicrobial activity against Microbotryum violaceum at 50 ug/disk by disk diffusion assay
Mycotypha microspora = assay: Antimicrobial activity against Mycotypha microspora at 50 ug/disk by disk diffusion assay
[Chlorella] fusca = Antimicrobial activity against Chlorella fusca at 50 ug/disk by disk diffusion assay; conditions: Scenedesmus fuscus
Plasmodium falciparum = assay: Antiplasmodial activity against Plasmodium falciparum
Escherichia coli [2] = assay: Quorum sensing activity in Escherichia coli MT102 harbouring pSB403 assessed as activation of acyl-homoserinlactone-related signaling at 0 to 1000 nM after 4 hrs by fluorescence assay
Pseudomonas putida [3] = assay: Quorum sensing activity in Pseudomonas putida F117 pKR-C12 assessed as activation of acyl-homoserinlactone-related signaling at 10 ul after 24 hrs by thin-layer chromatography
Pseudomonas putida [4] = assay: Quorum sensing activity in Pseudomonas putida F117 pAS-C8 assessed as activation of acyl-homoserinlactone-related signaling at 0 to 1000 nM after 4 hrs by fluorescence assay
[5] = system: Chromobacterium violaceum; assay: Quorum sensing activity in Chromobacterium violaceum assessed as activation of acyl-homoserinlactone-related signaling at 0 to 1000 nM after 4 hrs by fluorescence assay
Escherichia coli [6] = assay: Inhibition of acyl-homoserinlactone-related quorum sensing activity in Escherichia coli MT102 harbouring pSB403 at 0 to 1000 nM after 4 hrs by fluorescence assay
Pseudomonas putida [7] = assay: Inhibition of acyl-homoserinlactone-related quorum sensing activity in Pseudomonas putida F117 pKR-C12 at 10 ul after 24 hrs by thin-layer chromatography
Pseudomonas putida [8] = assay: Inhibition of acyl-homoserinlactone-related quorum sensing activity in Pseudomonas putida F117 pAS-C8 at 0 to 1000 nM after 4 hrs by fluorescence assay
[9] = system: Chromobacterium violaceum; assay: Inhibition of acyl-homoserinlactone-related quorum sensing activity in Chromobacterium violaceum at 0 to 1000 nM after 4 hrs by fluorescence assay
[10] = system: Myxococcus xanthus DK 1622; assay: Inhibition of Myxococcus xanthus DK 1622 growth at 0.5 mg after 72 hrs by agar diffusion assay

IC50 (Plasmodium falciparum) [µM] | Structure (SMILES) | Activity (Priestia megaterium) | Activity (Escherichia coli [1]) | Activity (Aspergillus ruber) | Activity (Microbotryum violaceum) | Activity (Mycotypha microspora) | Activity ([Chlorella] fusca) | Activity (Escherichia coli [2]) | Activity (Pseudomonas putida [3]) | Activity (Pseudomonas putida [4]) | Activity [5] | Activity (Escherichia coli [6]) | Activity (Pseudomonas putida [7]) | Activity (Pseudomonas putida [8]) | Activity [9] | Activity [10]
7 | CC(C)CCCCCCCCCCC/C=C\C(=O)N/C=C\c1ccc(O[C@@H]2O[C@@H](C)[C@H](O)[C@@H](O)[C@H]2O)cc1 [MYXOTYROSIDE A] | inactive | inactive | inactive | inactive | inactive | inactive | inactive | inactive | inactive | inactive | Active | Active | Active | Active | inactive
 | CCCCCCCCCCCCC/C=C\C(=O)N/C=C\c1ccc(O[C@@H]2O[C@@H](C)[C@H](O)[C@@H](O)[C@H]2O)cc1 |  |  |  |  |  |  | inactive | inactive | inactive | inactive | Active | Active | Active | Active | inactive
